Read-outs that look alike come from different tables or passages of the source.
Assays:
[1] = Compartmental plasma PK model; format: in vivo; parameters: Absorption rate constant Ka: unit not given here
From the text: This model, shown schematically in Figure 9, is based on total (free + bound) plasma concentrations; the major metabolites (M14, M13, and M18) are explicit and clearance of SN30000 occurs only by reduction to M14. The i.p. bioavailability of SN30000 was modeled with an additional term for loss from the peritoneal compartment (kloss).

[2] = test system: HCT116 cells; experiment: Antiproliferative potency, 4 h exposure, sulforhodamine B; format: cell-based, human; conditions: Homo sapiens, HCT-116, 4 h, HCT116, 4 h exposure, read-out: IC50
Method: Antiproliferative potency of SN30000 and its major metabolites following 4 h exposure of HCT116 cells under aerobic or anoxic conditions. […]
a HCT116 cells, originally from ATCC, were authenticated by short tandem repeat profiling and confir med mycoplasma-free by PCR/ELISA assay . Cells were passaged in Alpha MEM with 5% foetal bovine serum without antibiotics. In vitro cytotoxicity of SN30000 and metabolites was measured as the inhibition of cell proliferation as described previously (Gu et al., 2009). Briefly, cells were exposed to compounds for 4 h under aerobic (20% O2) or anoxic (Bactron anaerobic chamber) conditions and then grown in an aerobic 5% CO 2 incubator for 5 d before staining with sulforhodamine B. IC50 values were deter mined by interpolation (nonlinear regression to the standard Hill equation) as the drug concentration reducing staining to 50% of controls on the same plate. b Values are mean ± SEM for the numb er of independent experiments shown in parentheses.

[3] = test system: NIH-III mice; experiment: Core body (rectal) temperature and acute clinical signs after dosing; format: in vivo; conditions: i.p. SN30000 186 mg/kg, TPZ 31.7 mg/kg, M14 135 mg/kg
Method: Supplementary Figure 3. Initial rates of core temperature decrease in (untreated) NIH-III mice post- mortem: co mparison with initial temperature change ante- mortem following treatment with benzotriazine oxides at their MTD. Temperature was measured in rectu m and liver over 15 min. Initial rates of temperature loss (°C/min) were: post- mortem (rectum):
(rectum) 0.33. The rectal temperature loss following dosing with M14 (135 mg/kg) was 0.6 °C/min (not shown for clarity). The drug-induced changes are redrawn from Fig. 4.

[4] = Stability in mouse plasma (QC samples); format: physicochemical
From the text: using octa-deuterated internal standards of SN30000, M13 and M14 synthesised as previously reported (Wang et al., 2012). Intra- and inter-day precision (expressed as relative standard deviation (RSD) and accuracy (expressed as percentage of the nominal value) were deter mined by analy sis of replicates (n=6) of low and high quality control (QC) samples on three different days. The lower limit of quantitation (LLOQ) was defined as the lowest concentration providing RSD and accuracy < 20%. Recovery from plasma and liver ho mogenates was tested at the three QC levels. The recoveries were evaluated by comparing extracted samples with blank extracted solutions spiked with analytes of the same amount.
Matrix effects, defined as the change in response due to the presence of other substances in the samples, were evaluated by comparing the analytes diluted into the blank plasma or liver extracted solution with that of the same stock solutions diluted in water. Three different concentration levels (low, medium and high QC) were evaluated by analysing three samples at each level. Accuracy , precision, recovery and matrix effects were all acceptable over the concentration ranges evaluated for plas ma (Supplementary Table 1) and for liver homogenates (Supplementary Table 2).
Stability of the analytes in mouse plasma (Supplementary Table 3) or liver homogenate (Supplementary Table 4) was confirmed during holding of QC samples on ice for up to 2 h under nor mal laboratory lighting, although there was a trend towards loss of SN30000 in plasma samples held in clear microcentrifuge tubes which may reflect the known photosensitivity of the compound (Gu et al., 2014). This loss was reduced by use of red microcentrifuge tubes, and eliminated by black tubes. Stability in both matrices was also confir med for one month storage at -80°C and for three freeze-thaw cycles, while MeOH-deproteinised samples w ere stable for 12 h at 4°C in the autosampler (Supplementary Tables

[5] = i.p. SN30000 186 mg/kg
[6] = plasma deproteinised in 3 vol MeOH, 12 h autosampler at 4°C, nominal SN30000 0.5, M14 0.25, M13 0.1 µM
[7] = plasma deproteinised in 3 vol MeOH, 12 h autosampler at 4°C, nominal SN30000 5, M14 2.5, M13 1 µM
[8] = plasma deproteinised in 3 vol MeOH, 12 h autosampler at 4°C, nominal SN30000 50, M14 25, M13 10 µM
[9] = plasma, 1 month at -80°C, nominal SN30000 0.5, M14 0.25, M13 0.1 µM
[10] = plasma, 1 month at -80°C, nominal SN30000 5, M14 2.5, M13 1 µM
[11] = plasma, 1 month at -80°C, nominal SN30000 50, M14 25, M13 10 µM
[12] = plasma, 1 h on ice, black vial, nominal SN30000 0.5, M14 0.25, M13 0.1 µM
[13] = plasma, 1 h on ice, black vial, nominal SN30000 5, M14 2.5, M13 1 µM
[14] = plasma, 1 h on ice, black vial, nominal SN30000 50, M14 25, M13 10 µM
[15] = plasma, 1 h on ice, clear vial, nominal SN30000 0.5, M14 0.25, M13 0.1 µM
[16] = plasma, 1 h on ice, clear vial, nominal SN30000 5, M14 2.5, M13 1 µM
[17] = plasma, 1 h on ice, clear vial, nominal SN30000 50, M14 25, M13 10 µM
[18] = plasma, 1 h on ice, red vial, nominal SN30000 0.5, M14 0.25, M13 0.1 µM
[19] = plasma, 1 h on ice, red vial, nominal SN30000 5, M14 2.5, M13 1 µM
[20] = plasma, 1 h on ice, red vial, nominal SN30000 50, M14 25, M13 10 µM
[21] = plasma, 2 h on ice, black vial, nominal SN30000 0.5, M14 0.25, M13 0.1 µM
[22] = plasma, 2 h on ice, black vial, nominal SN30000 5, M14 2.5, M13 1 µM
[23] = plasma, 2 h on ice, black vial, nominal SN30000 50, M14 25, M13 10 µM
[24] = plasma, 2 h on ice, clear vial, nominal SN30000 0.5, M14 0.25, M13 0.1 µM
[25] = plasma, 2 h on ice, clear vial, nominal SN30000 5, M14 2.5, M13 1 µM
[26] = plasma, 2 h on ice, clear vial, nominal SN30000 50, M14 25, M13 10 µM
[27] = plasma, 2 h on ice, red vial, nominal SN30000 0.5, M14 0.25, M13 0.1 µM
[28] = plasma, 2 h on ice, red vial, nominal SN30000 5, M14 2.5, M13 1 µM
[29] = plasma, 2 h on ice, red vial, nominal SN30000 50, M14 25, M13 10 µM
[30] = plasma, three freeze-thaw cycles, nominal SN30000 0.5, M14 0.25, M13 0.1 µM
[31] = plasma, three freeze-thaw cycles, nominal SN30000 5, M14 2.5, M13 1 µM
[32] = plasma, three freeze-thaw cycles, nominal SN30000 50, M14 25, M13 10 µM
[33] = HT29 tumour, tumour-bearing mice
[34] = liver, HT29 tumour-bearing mice

[O-][n+]1nc(CCCN2CCOCC2)nc2cc3c(cc21)CCC3 [M14]
Central compartment volume V1 ([1]; 1-Oxide and Nor-oxide values fixed): 2.2 L/kg | Temperature effect (N) on V1 ([1]; (1+ΔT)^-N): 0.48 | Approximate % suppression per °C of CL ([1]; NIH-III, mouse, in vivo): ~82% | Approximate % suppression per °C of V1 ([1]; NIH-III, mouse, in vivo): ~28% | Intercompartmental clearance Clic ([1]; NIH-III, mouse, in vivo): 4.64 L/h/kg | Peripheral compartment volume V2 ([1]; NIH-III, mouse, in vivo): 3.51 L/kg | clearance ([1]; NIH-III, mouse, in vivo, model clearance of the compound, read-out: CL (converted)): 1020 mL/min/kg | Absorption rate constant Ka ([1]; i.p. dosing compartment, SN30000 value fixed): 4.43 | IC50 ([2]; aerobic (20% O2)): 600 ± 60 µM | IC50 ([2]; anoxic): 900 ± 100 µM | Initial rate of temperature loss (rectum) [3]: 0.6 °C/min | Bias [4, 6]: -3.45% | Measured conc [4, 6]: 0.24 µM | Bias [4, 7]: -1.00% | Measured conc [4, 7]: 2.48 µM | Bias [4, 8]: 5.16% | Measured conc [4, 8]: 26.29 µM | Bias [4, 9]: 1.83% | Measured conc [4, 9]: 0.23 µM | Bias [4, 10]: 1.63% | Measured conc [4, 10]: 2.42 µM | Bias [4, 11]: 1.59% | Measured conc [4, 11]: 26.65 µM | Bias [4, 12]: -6.07% | Measured conc [4, 12]: 0.23 µM | Bias [4, 13]: -9.84% | Measured conc [4, 13]: 2.25 µM | Bias [4, 14]: 3.20% | Measured conc [4, 14]: 25.80 µM | Bias [4, 15]: -6.07% | Measured conc [4, 15]: 0.23 µM | Bias [4, 16]: -2.06% | Measured conc [4, 16]: 2.45 µM | Bias [4, 17]: -2.50% | Measured conc [4, 17]: 24.37 µM | Bias [4, 18]: -3.25% | Measured conc [4, 18]: 0.24 µM | Bias [4, 19]: -4.29% | Measured conc [4, 19]: 2.39 µM | Bias [4, 20]: 0.26% | Measured conc [4, 20]: 25.07 µM | Bias [4, 21]: -2.23% | Measured conc [4, 21]: 0.24 µM | Bias [4, 22]: -2.62% | Measured conc [4, 22]: 2.43 µM | Bias [4, 23]: -2.33% | Measured conc [4, 23]: 24.42 µM | Bias [4, 24]: -5.90% | Measured conc [4, 24]: 0.24 µM | Bias [4, 25]: 0.51% | Measured conc [4, 25]: 2.51 µM | Bias [4, 26]: -2.43% | Measured conc [4, 26]: 24.39 µM | Bias [4, 27]: -3.27% | Measured conc [4, 27]: 0.24 µM | Bias [4, 28]: -0.72% | Measured conc [4, 28]: 2.48 µM | Bias [4, 29]: 0.70% | Measured conc [4, 29]: 25.17 µM | Bias [4, 30]: -4.07% | Measured conc [4, 30]: 0.24 µM | Bias [4, 31]: -3.19% | Measured conc [4, 31]: 2.42 µM | Bias [4, 32]: 3.92% | Measured conc [4, 32]: 25.98 µM | Concentrations in brain compared with plasma [5]: higher in brain than plasma | AUC (extrapolated to infinity) [5, 33]: 136 µmol·h/kg | Cmax [5, 33]: 46.0 ± 3.9 µmol/kg | AUC (extrapolated to infinity) ([5]; brain, non-tumour-bearing mice): 126 µmol·h/kg | Cmax ([5]; brain, non-tumour-bearing mice): 162 ± 0 µmol/kg | AUC (extrapolated to infinity) [5, 34]: 305 µmol·h/kg | Cmax [5, 34]: 371 ± 26 µmol/kg | AUC (extrapolated to infinity) ([5]; liver, non-tumour-bearing mice): 350 µmol·h/kg | Cmax ([5]; liver, non-tumour-bearing mice): 469 ± 27 µmol/kg | AUC (extrapolated to infinity) ([5]; plasma, HT29 tumour-bearing mice): 27. 6 µmol. hr/kg | AUC (extrapolated to infinity) ([5]; plasma, non-tumour-bearing mice): 26.4 µmol·h/kg

From paper PMC5554537 (Frontiers in Pharmacology, 2017)
